The values that follow come from PMC10606064, “2-Aminothiazole-Flavonoid Hybrid Derivatives Binding to Tau Protein and Responsible for Antitumor Activity in Glioblastoma” (International Journal of Molecular Sciences, 2023).

The test system of assay [1] is U87 shTau cells. In words: Cell cycle by flow cytometry (propidium iodide), U87 shTau. The conditions noted are these: 48 h. The format is cell-based, human. As to the method: (§1) Measurements of cell cycle from DNA content were performed by flow cytometry as described before. Briefly, 4.10^5 cells in exponential growth were seeded in 6-well plates. After 24 h, they were treated with 10 µM of compounds for 48 h. Nocodazole was used as a positive control with a concentration of 1 µM. The trypsinized cells were harvested and then centrifuged (1200 rpm, 5 min, at room temperature). The cell pellet was resuspended in 1 mL of PBS 1× at 4 °C, and then an extra 4 mL of cold PBS was added to wash the pellet. Cells were then centrifuged again (1200 rpm, 5 min, at 4 °C). To fixate the cells, the pellet was resuspended in 100 µL of cold 70% ethanol, then an additional 900 µL was added and cells were incubated for 30 min at −20 °C. After that, 9 mL of cold PBS was added, and cells were centrifuged (2000 rpm, 5 min, at 4 °C) to remove ethanol. The cell pellet was then resuspended in the staining mix containing 50 µg.mL^−1 of propidium iodide (Molecular Probes, Paris, France) and 100 µg.mL^−1 of RNAse A (Sigma-Aldrich, Saint-Quentin-Fallavier, France) in PBS for 20 min at room temperature in darkness. Samples were analyzed on a Beckman–Coulter–Gallios flow cytometer using the Kaluza for Gallios Acquisition v1.0 software. Propidium iodide was excited at 488 nm, and fluorescence was analyzed at 620 nm on channel FL-3. For the analysis, there is considerable overlap between early S phase and G1 and between late S phase and G2/M due to broadening of the distribution caused by variability in the staining of the cells and instrumental variability. Therefore, the percentages of cells in the sub-G1, G1, S, and G2/M phases of the cell cycle were calculated using the Watson et al. algorithm for cell cycle analysis in Kaluza for Gallios Analysis v2.1 software. The software automatically adjusted gates based on PI median fluorescence intensity of the cells and their frequency among total cells. The number of cells in each phase was divided by the total number of analyzed cells, and the values were reported as percentage of the total cells for each cell cycle phase.

The subject of another assay is U251 glioblastoma cells. In words: MTT cell viability assay, U251. The format is cell-based. The conditions noted are these: Homo sapiens, U-251, U251, 72 h, mean ± SEM, read-out: IC50 (metabolic activity). The protocol:
Cells harvested from sub-confluent monolayers were seeded at 15,000 cells per mL in a 96-well microtiter plate (Cambridge Technology, Labège, France) and cultured for 24 h under standard conditions. Standard medium was then replaced by fresh medium containing no drugs or compounds at different concentrations. The surviving cells were quantified after 72 h by the MTT assay, according to the manufacturer’s instructions. Briefly, 20 µL of 3-(4,5-diMethylThiazol-2-yl)-2,5diphenyl Tetrazolium bromide (MTT) solution at 5 mg.mL^−1 was added to cells for 3 h at 37 °C. The supernatant was discarded and replaced by 100 µL of dimethyl sulfoxide to dissolve formazan crystals. The absorbance was then read at 600 nm by spectrophotometry. For all concentrations of a given compound, cell viability was expressed as the percentage of the ratio between the mean absorbance of treated cells and the mean absorbance of untreated cells. Three independent experiments were performed, and the data were expressed as percentage of survival (using the untreated cells as 100%) and subjected to statistical analysis (n = 3). The IC50 was calculated using the Chou and Talalay method.

The next assay concerns U87 shCTRL cells. As to the kind of experiment: Cell cycle by flow cytometry (propidium iodide), U87 shCTRL. The format is cell-based, human. The settings on record: 48 h. As to the method: as §1
Assay [2] concerns U87 shTau cells. In words: Microtubule network analysis (alpha-tubulin immunofluorescence), U87 shTau. The class given is cell-based, human. The conditions noted are these: 0–20 µM, 24 h. As to the method:
For indirect immunofluorescence of mitochondria, 10^4 cells were plated on cover glass and incubated for 24 h with compounds. Cells were then fixed in 4% formaldehyde (in PBS pH 7.4) for 20 min at RT, permeabilized with PBS-Triton X-100 0.5% for 10 min at RT. Immunostaining was carried out overnight at 4 °C with a primary anti-citrate synthase antibody (dilution 1:400 in PBS-BSA 3%; SC390693; SantaCruz Biotechnologies, Heidelberg, Germany). […] Each image was recorded with the CLSM’s spectral mode selecting specific domains of the emission spectrum. The Alexafluor488 and FITC fluorophores were excited at 488 nm with an argon laser, and fluorescence emission was collected between 496 nm and 535 nm. The TRITC fluorophore was excited at 543 nm with a helium–neon laser, and fluorescence was collected between 560 and 620 nm. […]
The analyses of mitochondria and microtubule networks were performed using, respectively, the ‘Mitochondria analyzer’ plugin for Fiji v1.54f software and the method described in our earlier work. Briefly, a series of images were transferred to the software and corrected for background fluorescence intensity contribution. Next, the surface of 50 single cells was measured by considering the cell shape as the boundary of labelling of actin or α-tubulin cytoskeletons (respectively for measurement on mitochondria or microtubules). […]

For the compound `Nc1nc2ccc3oc(C(=O)O)cc(=O)c3c2s1` [Compound 5], in the assay with U87 shTau cells [1] (compounds 10 µM, NOC 1 µM), the “%G1 (cells in G1 phase)” value turned out to be 62 ± 5% and the “%G2/M (cells in G2/M phase)” value was 25 ± 1%. The IC50 in the assay on U251 glioblastoma cells is greater than 100 µM. In addition, in the assay with U87 shCTRL cells (compounds 10 µM, NOC 1 µM), the “%G1 (cells in G1 phase)” value is 53 ± 4% and the “%G2/M (cells in G2/M phase)” value came to 34 ± 5%. Besides, the “change of microtubule network” value in the assay on U87 shTau cells [2] is reported as “no change”.
Regarding `Nc1nc2ccc3oc(-c4cccc(Oc5ccccc5)c4)cc(=O)c3c2s1` [Compound 2, 2-amino-7-(3-phenoxyphenyl)-9H-chromeno [6,5-d]thiazol-9-one], the “effect on cell cycle progression” value in the assay on U87 shTau cells [1] (10 µM) and with U87 shCTRL cells (10 µM) was “no significant effect on cell cycle progression” in each case. In the assay with U251 glioblastoma cells, the IC50 came out at 1.7 ± 0.5 µM. Besides, the “change of microtubule network” value with U87 shTau cells [2] was “no change”.
